Key:
[1] = In vivo rat PK (CSF/plasma and brain/plasma ratio of tafamidis); conditions: for Tafamidis CSF/plasma Ratio over 24 hrs (po): oral dosing of test compound
From the text: For a compound provided herein to be an effective TTR stabilizer drug to halt and/or prevent the ocular and cerebral TTR amyloid deposition TTR amyloidosis, it has to be able to penetrate into the brain and CSF (surrogate for eye penetration) and deliver a sufficient amount of TTR stabilizer to stop TTR dissociation. A pharmacokinetic study in rat was used to evaluate the compounds. Male Sprague-Dawley (SD) rats (200-220 g weight) were acclimated for at least 2 to 3 days before being placed on study. All animals had access to certified rodent diet and water at libitum. Appropriate amount of the test compound was accurately weighed and mixed with appropriate volume of vehicle (such as DMSO/sterile water for iv dosing or 0.5% methylcellulose homogenous suspension or solution for oral administration or as a solution in a mixture NMP/PEG400/solutol/water) to administer a dose of 2, 5 or 10 mg/kg. For IV dosing the test compound was administered via tail vein or indwelling cannula. For oral dosing, the test compound was administered by oral gavage. Blood and CSF samples were collected at selected timepoints. Blood collection was performed from saphenous vein or tail vein of each animal into polypropylene tubes at each timepoint. All blood samples were transferred into EDTA-K2 tubes and centrifuged for 15 minutes at 4° C. for plasma collection. Plasma samples were kept at −80° C. until LC/MSMS analysis. CSF was collected from cisterna magna at each timepoint and quick frozen over dry ice and kept at −80° C. until LC/MSMS analysis. Brains were harvested immediately after the terminal bleeding (˜24 hrs post dosing). The blood of the brain was perfused with normal saline. The brain was quickly picked and placed into centrifuge tube. The weight of brain samples was recorded. 4-Fold homogenization solution (MeOH/15 mM PBS (1:2)) was added into the tube according to the weighed samples. The brain was homogenized using a Polytron (3 strokes or more until homogenous, each 30 seconds) on wet ice. The samples were quick frozen over dry ice and kept at −80° C. until LC/MSMS analysis. Using a LC-MSMS method for the quantitative determination of test compound in biological matrixes, amount of test compound and active agent were measured in plasma and CSF at selected timepoints post-dosing and in brain at 24 hrs post dosing. Plasma concentration versus time data was analyzed by non-compartmental approaches using the Phoenix WinNonlin 6.3 software program. As reference, an oral dose of 2 mg/kg of tafamidis gave a CSF to plasma ratio over 24 hrs around 0.01 and a brain to plasma ratio at 24 hrs around 0.02.
Results from rat PK (CSF/plasma ratio and brain/plasma ratio at 24 hrs) are shown in Table 4B and Table 4C, respectively.

[2] = In vitro rat liver S9 stability assay (formation of tafamidis); type: in vitro ADME; conditions: rat liver S9, 1 μM test compound, 37° C.
Outline: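 Test compound at 1 μM was incubated with rat liver S9 at 37° C. Samples taken at 0, 5, 10, 20, 30 and 60 min were protein-precipitated and analysed by LC-MS/MS. Percentage formation of the active agent was calculated at each time point.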

[3] = tafamidis-treated FAP patients; cited from earlier work

In the case of `CN(C)CCNC(=O)c1ccc2nc(-c3cc(Cl)cc(Cl)c3)oc2c1` [Compound 7, 2-(3,5-dichlorophenyl)-N-(2-(dimethylamino)ethyl)benzo[d]oxazole-6-carboxamide], the “Tafamidis CSF/plasma Ratio over 24 hrs (po)” value (“Tafamidis CSF/plasma Ratio” below) [1] is reported as “C (C is ≥0.02)” and the “Formation of tafamidis at 60 min” value [2] is reported as “A (A is <25%)”.

For `CC(Cc1ncc[nH]1)OC(=O)c1ccc2nc(-c3cc(Cl)cc(Cl)c3)oc2c1` (centres unmarked) [Compound 34, 1-(1H-imidazol-2-yl)propan-2-yl 2-(3,5-dichlorophenyl)benzo-[d]oxazole-6-carboxylate], the “Tafamidis CSF/plasma Ratio” value [1] was “B (B is ≥0.015 to <0.02)” and the “Formation of tafamidis at 60 min” value [2] was “A (A is <25%)”.

For `O=C(c1ccc2nc(-c3cc(Cl)cc(Cl)c3)oc2c1)N1CCCC(O)C1` (centres unmarked) [Compound 83], the “Tafamidis CSF/plasma Ratio” value [1] was “A (A is <0.015)” and the “Formation of tafamidis at 60 min” value [2] was “A (A is <25%)”.

For `O=C(c1ccc2nc(-c3cc(Cl)cc(Cl)c3)oc2c1)N1CCC(O)C1` (centres unmarked) [Compound 84], the “Tafamidis CSF/plasma Ratio” value [1] was “A (A is <0.015)” and the “Formation of tafamidis at 60 min” value [2] was “A (A is <25%)”.

For `O=C(c1ccc2nc(-c3cc(Cl)cc(Cl)c3)oc2c1)N1CC(O)C1` [Compound 93], the “Tafamidis CSF/plasma Ratio” value [1] was “A (A is <0.015)” and the “Formation of tafamidis at 60 min” value [2] was “A (A is <25%)”.

For `CC1(O)CN(C(=O)c2ccc3nc(-c4cc(Cl)cc(Cl)c4)oc3c2)C1` [Compound 101], the “Tafamidis CSF/plasma Ratio” value [1] was “B (B is ≥0.015 to <0.02)” and the “Formation of tafamidis at 60 min” value [2] was “A (A is <25%)”.

For `O=C(c1ccc2nc(-c3cc(Cl)cc(Cl)c3)oc2c1)N1CCC(F)(F)C1` [Compound 104], the “Tafamidis CSF/plasma Ratio” value [1] was “A (A is <0.015)” and the “Formation of tafamidis at 60 min” value [2] was “A (A is <25%)”.

For `O=C(O)c1ccc2nc(-c3cc(Cl)cc(Cl)c3)oc2c1` [tafamidis], the Kp ([1]; male, Sprague-Dawley, CSF and plasma, oral dose of 2 mg/kg of tafamidis, reference, read-out: CSF to plasma ratio over 24 hrs) is given as ~0.01, the Kp at 24 h ([1]; male, Sprague-Dawley, brain and plasma, oral dose of 2 mg/kg of tafamidis, reference) is given as ~0.02 and the “tafamidis level in CSF, of that in plasma” value [3] is given as 2%. For the same compound, the “tafamidis level in vitreous, of that in plasma” value [3] was 0.5%, the “tafamidis/TTR stoichiometric ratio in plasma” value [3] was 2.4 and the “tafamidis/TTR stoichiometric ratio in vitreous and CSF” value [3] was ≤ 1.

Reference: patent publication US20240190831A1, “TRANSTHYRETIN STABILIZING COMPOUNDS” (Protego Biopharma, Inc., priority 2021, published 2024)
